Key:
[1] = Pharmacokinetics of Compound 3 and Compound 4, five daily subcutaneous doses, mice (plasma, heart, brain); assay type: in vivo, C57Bl/6 mice; conditions: mouse; for tolerability: SC once per day for 5 days, up to 60 mg/kg
Experimental: • Animals: Male/C57Bl/6 mice/-18-25 grams were received from an approved vendor. • Fasting was not required for this study. • Body weights were recorded prior to dose administration. The volume of each dose delivered (mL/kg) was based on each individual animal's body weight. • This was a multiple dose terminal study dosed once per day over 5 days. Mice were taken down following their 5th and final dose. • Doses were administered in accordance with test facility standard operating procedures. […] Any abnormalities were recorded. • Pre-formulated Compound 3 and Compound 4 were provided by Study sponsor ready to be dosed for each day in accordance with the Study Design set forth in Table 1, below.
• Terminal blood samples were collected via cardiac puncture following inhalation of anesthesia in accordance with test facility standard operating procedures. • Blood samples were collected into tubes with appropriate anticoagulant. The tubes were stored on wet ice until processed to plasma by centrifugation (3500 rpm at 5° C. for 10 minutes) within 20 minutes of collection. Sample aliquots of 100 μL were transferred into individual uniquely labeled matrix tubes and stored at nominal −80° C. until transferred to analytical chemistry for analysis by LC/MS/MS. • Immediately following each terminal blood collection for all groups, animals were sacrificed and perfused with cold PBS. The following tissues were collected: heart and brain in accordance with Table 2. • Plasma and tissue samples were processed for analysis by LC/MS/MS to determine the amounts/concentrations reported in the FIGS. 18-21.

[2] = tested on: ROS production generated by reverse electron transfer (RET) from Complex II to Complex I; assay: Reverse electron transfer assay (RET assay) in isolated brain mitochondria; assay type: biochemical, mouse
Experimental: For mitochondria isolation, brains were dissected at a local vivarium (Explora, MA, USA) from C57BL/6 mice that were supplied by The Jackson Laboratory (Maine, USA). Brains were collected on ice in cold mitochondria isolation buffer (225 mM mannitol, 75 mM sucrose, 5 mM HEPES, 1 mM EGTA, pH 7.4). In a glass petri dish, brains were mixed with a few drops of buffer and cut into small pieces resembling a mash using scissors. Mitochondrial isolation buffer was added at 1:10-1:20 (w/v) and tissue mash was transferred to a glass Dounce tissue homogenizer and further homogenized with 10-15 strokes. Mash was centrifuged at 1,000×g for 10 min to pellet and remove cellular debris, etc. Supernatant was transferred into 2.0 mL tubes and centrifuged at 10,000×g. […]
All high-resolution respirometry experiments were conducted using the Oroboros O2k-Fluorespirometer (Oroboros, Innsbruck, Austria). […] Prior to each experiment requiring the fluorescence module, the AmpR calibration protocol from DatLab 7.4 was used to calibrate the fluorescence signal. […]
Reverse electron transfer (RET) was measured using HRR with the Oroboros O2k and DatLab 7.4. […]
Statistical analysis was performed using GraphPad Prism 9. […] RET Assay data were analyzed by 2-way ANOVA using a p-value of 0.05. […]

[3] = SC, up to 2 hours post dose after 5 days

SMILES	tolerability [1]	Tmax, Compound 4 compared with Compound 3 ([1]; in vivo, sc)	brain exposure based on AUC, comparison between compounds ([1]; in vivo, sc)	exposure (Cmax and AUC) heart compared with brain ([1]; in vivo, sc)	half-life, Compound 4 compared with Compound 3 ([1]; in vivo, sc)	uptake into plasma after subcutaneous injection ([1]; in vivo, sc)	H2O2 production ([2]; either 1 or 2 μM compound prior to succinate (10 mM))	exposure (Cmax and AUC) heart compared with brain ([1]; SC)	heart exposure based on AUC, comparison between compounds ([1]; SC)	uptake into plasma after subcutaneous injection ([1]; SC)	concentration in brain tissue [1, 3]	concentration in heart tissue [1, 3]	H2O2 production ([2]; 2 μM compound prior to succinate (10 mM))
CC1=C(C)C(=O)C(CC[C@](C)(O)CCCCCCCCC(F)(F)F)=C(C)C1=O [Compound 4]	well tolerated	typically later	somewhat higher than Compound 3	no difference in the two tissue exposures	tended to be longer	migrate into the blood stream	statistically significant reduction	–	–	–	–	–	–
CC1=C(C)C(=O)C(CC[C@@](C)(O)COCCC[Si](C)(C)C)=C(C)C1=O [Compound 3]	well tolerated	–	–	–	–	–	–	higher in heart than in brain	slightly higher that Compound 4	migrate into the blood stream	up to microgram quantities of drug per gram of brain tissue	up to microgram quantities of drug per gram of heart tissue	statistically significant reduction

From patent US20250090562A1, “METHODS, COMPOSITIONS AND USES RELATED TO THE TREATMENT AND PREVENTION OF LEIGH’S SYNDROME” (Stealth BioTherapeutics Inc., priority 2023, published 2025)
